Assay results from patent US11959096B2, “Methods for selective inhibition of pluripotent stem cells” (THE MEDICAL COLLEGE OF WISCONSIN, INC., priority 2014, dated 2024).

What was measured:
confluent hiPSC = assay: Colony formation assay (alkaline phosphatase staining); assay type: cell-based, human; settings: for colony formation: 24 hours treatment, no passaging, six days
Description: The first iteration was adapted from previously described method, after 24 hours of treatment, hiPSC were detached with Accutase (StemCell Technologies), re-suspended in E8, passed though 12×75 mm tube with cell strainer cap (Falcon), and plated at 5e4 live cells per 2 cm^2. Media were changed every 48 hours and cells were cultured for six days, at which time staining for alkaline phosphatase was performed with leukocyte alkaline phosphatase kit (Sigma-Aldrich) as described and plates were visually inspected for phosphatase-positive colonies. This strategy represents the most common implementation of the colony formation assay. However, concerns regarding the cell death normally encountered during passaging prompted another approach for stricter assessment. In the second iteration, cells were treated for 24 hours, washed twice with 0.5 mL D-PBS, and media refreshed with E8. Thereafter, media were replaced daily for six days at which point staining for alkaline phosphatase activity was performed. […] Elimination of hiPSC from co-cultures with differentiated cells was performed with human fibroblasts and day 10 cardiomyocytes derived from hiPSC. hiPSC (DF6-9-9T) were plated at concentrations ranging from 100-10,000 live cells per well with human fibroblasts (1.75e5 cells) or day 10 differentiated cardiomyocytes (3.75e5 cells) in E8 and Y-27632 per 9.6 cm^2. […] Six days after plating, staining for alkaline phosphatase activity was performed. […] Imaging of wells was performed with a Sony Cyber-shot DSC-TX30 and individual colonies with a Nikon stereoscope.

[1] = system: DF6-9-9T hiPSC in co-culture with day 10 cardiomyocytes or human fibroblasts; assay: Colony formation assay in co-cultures of hiPSC with differentiated cells; assay type: cell-based; settings: 5 μM
Description: The first iteration was adapted from previously described method, after 24 hours of treatment, hiPSC were detached with Accutase (StemCell Technologies), re-suspended in E8, passed though 12×75 mm tube with cell strainer cap (Falcon), and plated at 5e4 live cells per 2 cm^2. Media were changed every 48 hours and cells were cultured for six days, at which time staining for alkaline phosphatase was performed with leukocyte alkaline phosphatase kit (Sigma-Aldrich) as described and plates were visually inspected for phosphatase-positive colonies. This strategy represents the most common implementation of the colony formation assay. However, concerns regarding the cell death normally encountered during passaging prompted another approach for stricter assessment. In the second iteration, cells were treated for 24 hours, washed twice with 0.5 mL D-PBS, and media refreshed with E8. Thereafter, media were replaced daily for six days at which point staining for alkaline phosphatase activity was performed. […] Elimination of hiPSC from co-cultures with differentiated cells was performed with human fibroblasts and day 10 cardiomyocytes derived from hiPSC. hiPSC (DF6-9-9T) were plated at concentrations ranging from 100-10,000 live cells per well with human fibroblasts (1.75e5 cells) or day 10 differentiated cardiomyocytes (3.75e5 cells) in E8 and Y-27632 per 9.6 cm^2. […]

[2] = system: day 10 cardiomyocytes derived from hiPSC (DF6-9-9T); assay: Characterization of cardiomyocytes after STF-31 (contractility, flow cytometry, immunofluorescence, qPCR); assay type: cell-based, human
Description: Quantitative-real time PCR for TNNI3, Troponin T2 (TNNT2), and Homeobox protein Nkx-2.5 (NKX2-5) was performed as previously described using Taqman® Assays […] Cells were then fixed with 4% paraformaldehyde, permeabilized with 0.2% Triton-X, incubated with primary antibody for Troponin T (TNNT2) (Abcam: ab8295) overnight at 4° C. Cells were then incubated in secondary antibody goat anti-mouse IgG1-Alexa 568 (Life Tech: A-21124) and nuclei were detected with Hoechst 33342 (Life Tech: H21492). Cells were imaged with a Nikon Ti-U inverted microscope and Nikon Eclipse 90i confocal microscope.

[3] = system: PAX6 positive neural progenitor cells; assay type: cell-based
From the text: Data expressed as mean+S.D. (n=4); p<0.05, **p<0.01, ***p<0.001. […] Data expressed as mean+S.D. (n=4), *p<0.05, **p<0.01, ***p<0.001.

hiPSC [4] = assay: Extracellular flux analysis (ECAR, OCR); assay type: cell-based, human
Description: Extracellular Flux Analysis: hiPSC were plated at 6e4 cells per well on specialized microplate (Seahorse Bioscience) as previously described with several exceptions. Extracellular flux analysis was performed on hiPSC 48 hours post-plating using Seahorse Bioscience XF24 Analyzer. […] The microplate was equilibrated in non-CO2 incubator for 1.5 h, and analyzed for 16 h in Seahorse Bioscience XF24 Analyzer. Assay medium consists of basal E8 reagents with the following exceptions: basal DMEM F-12 without phenol red (Gibco), no sodium bicarbonate, and 2.5 mM GlutaMAX™ (Gibco) and 15 mM Hepes (Gibco). Assay medium was adjusted to pH 7.4 at 37° C. prior to use. Extracellular acidification rate (ECAR) and basal oxygen consumption rate (OCR) were collected approximately every 60 minutes. Treatments were normalized to baseline media control value and are represented as average of thee biological replicates.

human fibroblasts = assay: Neutral red viability assay in fibroblasts; assay type: cell-based; settings: 24 hour treatment, 100 μM
sub-confluent hiPSC [5] = assay: Glucose uptake assay ([3H]2-deoxyglucose); assay type: cell-based, human
Description: For 1 hour treatment, cells were placed in Krebs-Ringer Hepes (KRH) containing treatment at 37° C. in a humidified cell incubator with 5% CO2. For 15, 18, and 24 hour treatments, cells were treated in E8 medium for 14, 17, and 23 hours, respectively, at which point media was changed to KRH buffer containing specific treatment for 1 hour. After specified treatment time, glucose uptake was performed with 0.5 μCi [^3H]2-deoxyglucose for 5 min at 37° C. as previously described. Uptake data were normalized to protein concentration measured with Lowry method.

[6] = DMSO; cited from earlier work
hiPSC [7] = assay: Nucleotide pool measurements (HPLC); assay type: cell-based, human
Description: Nucleotide Pool Measurements: ATP, ADP, AMP, and NAD^+ were extracted using perchloric acid precipitation and analyzed using HPLC, following a previously published method. ATP, ADP, AMP and NAD^+ peaks were measured for each sample, compared with the standards, and normalized to protein levels.

hiPSC [8] = assay: Live/dead staining (calcein AM / ethidium homodimer-1); assay type: cell-based, human
Description: In Vitro Toxicity Assays: Treatment with small molecules or glucose deprivation was initiated in hESC or hiPSC at 24 and 96 h post-plating and in vitro toxicity assays were performed at specified treatment endpoints 24-96 hours after treatment initiation. […] Neutral red assays for cell viability were performed as previously described. In vitro cell death was determined using SYTOX® Green nucleic acid stain (Life Technologies). Briefly, cells were incubated in 5 μM SYTOX® Green for 30 minutes at 37° C. in a humidified cell incubator with 5% CO2. Percent cell viability was determined by normalizing to replicate cells incubated with 120 μM digitonin (Sigma-Aldrich) and 5 μM SYTOX® Green. Imaging of cell viability was performed using Live/Dead® Viability/Cytotoxicity Kit, for mammalian cells (Life Technologies). Cells were stained for 20 minutes at room temperature with 4 μM Calcein AM to detect viable cells and 2 μM Ethidium Homodimer 1 to detect cells with compromised membranes. Representative images of alterations in cell morphology were acquired on confluent hPSC 24-72 hours after treatment initiation. Imaging was performed with a Nikon Ti-U inverted microscope.

sub-confluent hiPSC [9] = assay: Cleaved caspase-3/7 fluorescence based assay; assay type: cell-based, human; settings: after initiation of treatment; 2.5 μM STF-31, 30 μM WZB117
[10] = 5 μM 24 hour pulse, 72 hours after treatment initiation

## CC(C)(C)c1ccc(S(=O)(=O)NCc2ccc(C(=O)Nc3cccnc3)cc2)cc1 [STF-31, 4-[[[[4-(1,1-Dimethylethyl)phenyl]sulfonyl]amino]methyl]-N-3-pyridinyl-benzamide]
Confluent hiPSC; 24 hour pulse, cells passaged, cultured 6 days
  formation of alkaline phosphatase-positive colonies: prevented the formation of alkaline phosphatase-positive colonies
Confluent hiPSC; 2.5 μM STF-31
  colony formation: a limited number of colonies formed
Confluent hiPSC; 5 μM STF-31
  colony formation: no colonies were observed
[1]; 24-hour pulse, day 10 cardiomyocytes
  elimination of hiPSC colonies from co-culture: elimination of a majority of hiPSC colonies
[1]; 48 hour pulse, day 10 cardiomyocytes or human fibroblasts
  elimination of hiPSC colonies from co-culture: completely eliminate hiPSC
[2]; 5 μM 24 hour pulse, 24-72 hours after initiation
  expression of cardiac genes (q-PCR): not significantly altered
[2]; [10]
  abundance of cardiac markers TNNI3 and IRX4 (flow cytometry): did not affect abundance
  structural organization of TNNT2: maintained comparable structural organization
[2]; 5 μM for 24 hours, day 10 cardiomyocytes
  cardiomyocyte spontaneous contractility: did not affect cardiomyocyte spontaneous contractility
[2]; treated on day 5 and day 10 of differentiation
  contractions, protein and mRNA levels of cardiomyocyte markers, structural features compared with controls: indistinguishable from controls
[3]; 2.5 μM for 72 hours, day 10 and day 12 progenitors
  viability (MTT) and immunofluorescence compared with controls: indistinguishable from controls
[3]; short term treatment (24 hours), 2.5 μM
  toxicity: does not result in significant toxicity
hiPSC [4]; 2.5 μM STF-31
  delay of decrease in ECAR compared to inhibitors of glucose oxidation: up to 15 hours
hiPSC [4]; 2.5 μM STF-31, 30 μM WZB117
  time before reductions in OCR: 15 h
Human fibroblasts
  reduction of fibroblast viability: 30%
sub-confluent hiPSC [5]; 2.5 μM STF-31
  first time point with decrease in glucose uptake: 18 h
sub-confluent hiPSC [5]; 1 hour of treatment, 2.5 μM STF-31, 30 μM WZB117
  decrease in glucose uptake: did not alter glucose uptake
[6]
  solubility: soluble in DMSO
hiPSC [7]; 2.5 μM STF-31
  time until ATP levels decrease: 18 h
hiPSC [7]; 2.5 μM STF-31, by 3 hours
  NAD+ levels: −50%
hiPSC [7]; 2.5 μM STF-31, by 18 hours
  NAD+ levels: < 1%
hiPSC [8]; 48 hours, 2.5 μM STF-31
  live/dead staining: small patches of live cells remained
hiPSC [8]; 72 hours, confluent, 2.5 μM STF-31, 30 μM WZB117, 20 μM PluriSIn
  live/dead staining: not visible
sub-confluent hiPSC [9]
  time of induction of caspase-3/7 activity: 24 h
